Assays:
[1] = Primary screening of photostability of the CyNA library (time-course fluorescence, 8 h); assay type: physicochemical; parameters: F/Fo, fluorescent intensity at 8 hours vs 0 hours: unit: %; settings: 10 μM in HEPES 100 mM pH 7.4, 2% DMSO
Summary of the method: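 CyNA dyes at 10 μM in 100 mM HEPES pH 7.4 with 2% DMSO irradiated by xenon lamp for 8 h. Fluorescence (ex/em 790-820 nm) read every 10 min; stability given as F8h/Fo.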

[2] = Absorbance and fluorescence maximum wavelengths and quantum yields of the CyNA library; assay type: physicochemical; settings: for λabs, absorbance maximum wavelength / λem, fluorescence maximum wavelength: CyNA library; for φ, quantum yield: in DMSO, Cardiogreen as standard
Summary of the method: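 Absorption and emission maxima and quantum yields of the 80-member amine-derivatized CyNA library were measured on a plate spectrophotometer.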

CCCN1/C(=C/C=C2\CCCC(/C=C/C3=[N+](CCC)c4ccccc4C3(C)C)=C2N(CCc2ccc(C)cc2)C(C)=O)C(C)(C)c2ccccc21.[I-] [CyNA-478]
F/Fo, fluorescent intensity at 8 hours vs 0 hours [1]: 64 | max RFU, maximum relative fluorescence units [1]: 121.6 | λabs, absorbance maximum wavelength [2]: 805 nm | λem, fluorescence maximum wavelength [2]: 821 nm | φ, quantum yield [2]: 0.09

CCCN1/C(=C/C=C2\CCCC(/C=C/C3=[N+](CCC)c4ccccc4C3(C)C)=C2N(CCc2ccccc2Cl)C(C)=O)C(C)(C)c2ccccc21 [CyNA-480]
F/Fo, fluorescent intensity at 8 hours vs 0 hours [1]: 51 | max RFU, maximum relative fluorescence units [1]: 154.8 | λabs, absorbance maximum wavelength [2]: 803 nm | λem, fluorescence maximum wavelength [2]: 817 nm | φ, quantum yield [2]: 0.06

CCCN1/C(=C/C=C2\CCCC(/C=C/C3=[N+](CCC)c4ccccc4C3(C)C)=C2N(CC(C)C)C(C)=O)C(C)(C)c2ccccc21 [CyNA-487]
F/Fo, fluorescent intensity at 8 hours vs 0 hours [1]: 30 | max RFU, maximum relative fluorescence units [1]: 45.3 | λabs, absorbance maximum wavelength [2]: 806 nm | λem, fluorescence maximum wavelength [2]: 823 nm | φ, quantum yield [2]: 0.04

CCCN1/C(=C/C=C2\CCCC(/C=C/C3=[N+](CCC)c4ccccc4C3(C)C)=C2N(Cc2ccc(Cl)cc2Cl)C(C)=O)C(C)(C)c2ccccc21 [CyNA-531]
F/Fo, fluorescent intensity at 8 hours vs 0 hours [1]: 100 | max RFU, maximum relative fluorescence units [1]: 187.5 | λabs, absorbance maximum wavelength [2]: 804 nm | λem, fluorescence maximum wavelength [2]: 820 nm | φ, quantum yield [2]: 0.08

CCCN1/C(=C/C=C2\CCCC(/C=C/C3=[N+](CCC)c4ccccc4C3(C)C)=C2N(Cc2cccc3ccccc23)C(C)=O)C(C)(C)c2ccccc21 [CyNA-542]
F/Fo, fluorescent intensity at 8 hours vs 0 hours [1]: 74 | max RFU, maximum relative fluorescence units [1]: 442.7 | λabs, absorbance maximum wavelength [2]: 805 nm | λem, fluorescence maximum wavelength [2]: 821 nm | φ, quantum yield [2]: 0.08

CCCN1/C(=C/C=C2\CCCC(/C=C/C3=[N+](CCC)c4ccccc4C3(C)C)=C2N(CC(c2ccccc2)c2ccccc2)C(C)=O)C(C)(C)c2ccccc21 [CyNA-548]
max RFU, maximum relative fluorescence units [1]: 67.6 | λabs, absorbance maximum wavelength [2]: 804 nm | λem, fluorescence maximum wavelength [2]: 820 nm | φ, quantum yield [2]: 0.04

CCCN1/C(=C/C=C2\CCCC(/C=C/C3=[N+](CCC)c4ccccc4C3(C)C)=C2N(Cc2ccc(Cl)c(Cl)c2)C(C)=O)C(C)(C)c2ccccc21 [CyNA-565]
F/Fo, fluorescent intensity at 8 hours vs 0 hours [1]: 96 | max RFU, maximum relative fluorescence units [1]: 335.5 | λabs, absorbance maximum wavelength [2]: 805 nm | λem, fluorescence maximum wavelength [2]: 821 nm | φ, quantum yield [2]: 0.09

CCCCCCCCCCCN(C(C)=O)C1=C(/C=C/C2=[N+](CCC)c3ccccc3C2(C)C)CCC/C1=C\C=C1\N(CCC)c2ccccc2C1(C)C [CyNA-567]
F/Fo, fluorescent intensity at 8 hours vs 0 hours [1]: 100 | max RFU, maximum relative fluorescence units [1]: 279.2 | λabs, absorbance maximum wavelength [2]: 805 nm | λem, fluorescence maximum wavelength [2]: 820 nm | φ, quantum yield [2]: 0.14

CCCN1/C(=C/C=C2\CCCC(/C=C/C3=[N+](CCC)c4ccccc4C3(C)C)=C2N(CC(C)CC)C(C)=O)C(C)(C)c2ccccc21 (centres unmarked) [CyNA-574]
F/Fo, fluorescent intensity at 8 hours vs 0 hours [1]: 38 | max RFU, maximum relative fluorescence units [1]: 321.1 | λabs, absorbance maximum wavelength [2]: 803 nm | λem, fluorescence maximum wavelength [2]: 818 nm | φ, quantum yield [2]: 0.06

— patent US9201014B2, “Development of photostable near-IR cyanine dyes for in vivo imaging” (National University of Singapore, priority 2010, dated 2015)
